Data taken from patent US10227357B2, “Compounds and methods for kinase modulation, and indications therefor” (Plexxikon Inc., priority 2012, dated 2019).

Legend:
[1] = target: T1, c-kit kinase (Homo sapiens, UniProt P10721); test: c-Kit biochemical assay, AlphaScreen, 10 μM ATP; conditions: c-kit biochemical inhibitory activity; read-out: Biochemical activity (IC50 μM) Kit
T1 construct: The c-kit (or kinase domain thereof) is an active kinase in AlphaScreen; poly-Histidine tag (in-house protein only) (cleaved yes); host or cells: E. coli BL21(DE3)RIL, co-expressed with PTP1B
T1 sequence (P10721 26-976): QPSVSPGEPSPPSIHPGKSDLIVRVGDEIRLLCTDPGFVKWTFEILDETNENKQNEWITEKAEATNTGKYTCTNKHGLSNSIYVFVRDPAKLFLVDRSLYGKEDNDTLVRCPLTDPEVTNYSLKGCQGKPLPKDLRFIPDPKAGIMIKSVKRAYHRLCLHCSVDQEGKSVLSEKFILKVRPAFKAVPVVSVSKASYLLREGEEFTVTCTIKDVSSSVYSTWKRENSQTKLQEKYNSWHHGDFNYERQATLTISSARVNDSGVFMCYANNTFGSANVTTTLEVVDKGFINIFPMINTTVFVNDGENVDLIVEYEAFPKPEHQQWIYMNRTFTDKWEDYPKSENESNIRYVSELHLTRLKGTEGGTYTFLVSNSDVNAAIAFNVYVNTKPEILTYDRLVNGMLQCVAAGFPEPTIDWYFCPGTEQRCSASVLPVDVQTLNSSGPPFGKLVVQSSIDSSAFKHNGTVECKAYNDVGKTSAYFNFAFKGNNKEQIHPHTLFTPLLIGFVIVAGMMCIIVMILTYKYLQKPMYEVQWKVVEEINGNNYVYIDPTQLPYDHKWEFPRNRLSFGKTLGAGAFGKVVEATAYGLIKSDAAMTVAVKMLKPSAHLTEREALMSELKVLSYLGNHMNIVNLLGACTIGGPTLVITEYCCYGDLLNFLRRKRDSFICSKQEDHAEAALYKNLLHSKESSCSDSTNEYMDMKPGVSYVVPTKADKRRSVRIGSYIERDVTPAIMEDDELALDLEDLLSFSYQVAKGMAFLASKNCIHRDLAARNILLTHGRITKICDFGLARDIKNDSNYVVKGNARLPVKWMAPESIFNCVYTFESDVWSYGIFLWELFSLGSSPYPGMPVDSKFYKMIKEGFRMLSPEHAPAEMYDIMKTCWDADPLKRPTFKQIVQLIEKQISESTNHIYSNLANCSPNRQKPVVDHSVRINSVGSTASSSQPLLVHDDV
How it was run: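 His-tagged c-Kit expressed in E. coli with co-expressed PTP1B (dephosphorylated), tag removed; 0.1 ng per reaction with biotinylated-peptide substrate in 50 mM HEPES pH 7.2, 5 mM MgCl2, 5 mM MnCl2, 5% DMSO, 10 μM ATP, 1 h at room temperature. Phosphorylation detected by AlphaScreen (streptavidin donor, PY20 acceptor beads); IC50 from 8-point 1:3 dilution series.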

[2] = target: T2, c-kit mutant D816V (Homo sapiens, UniProt P10721, D816V/DEL694-753); test: c-Kit mutant D816V biochemical assay, AlphaScreen; conditions: c-kit D816V biochemical inhibitory activity; read-out: Biochemical activity (IC50 μM) Kit D816V
T2 construct: residues 551-934, kinase insertion domain residues 694-753 deleted; 6x-histidine (N); made in house; host or cells: E. coli Arctic Express (DE3) RIL (Stratagene)
T2 sequence (P10721 with tags, fused parts or gaps DEL694-753/D816V): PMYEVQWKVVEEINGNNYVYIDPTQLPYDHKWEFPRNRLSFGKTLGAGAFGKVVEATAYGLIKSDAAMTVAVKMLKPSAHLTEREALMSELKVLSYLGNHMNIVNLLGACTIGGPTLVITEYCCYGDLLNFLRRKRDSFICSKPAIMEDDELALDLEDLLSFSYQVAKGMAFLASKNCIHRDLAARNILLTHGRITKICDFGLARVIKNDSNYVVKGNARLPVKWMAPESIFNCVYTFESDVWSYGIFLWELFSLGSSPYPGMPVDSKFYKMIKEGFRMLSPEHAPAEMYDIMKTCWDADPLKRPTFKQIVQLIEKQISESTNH
How it was run: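 Eight-point, threefold compound series incubated 30 min at room temperature with E. coli-produced D816V kinase, 10 μM ATP, Mg2+/Mn2+ HEPES buffer pH 7.2 and 5% DMSO. After EDTA stop, streptavidin and anti-phosphotyrosine (PY20) AlphaScreen beads gave the read-out, and IC50 was fitted from the concentration–signal curve.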

| SMILES | IC50 [1] | IC50 [2] |
| --- | --- | --- |
| CCCNC(=O)N1CCN(c2ncnc3[nH]c(-c4ccccc4)cc23)CC1 [P-0236, 4-(6-phenyl-7H-pyrrolo[2,3-d]pyrimidin-4-yl)-N-propyl-piperazine-1-carboxamide] | 1 to 10 µM | 10 to 200 µM |
| O=C(Nc1ccccc1Cl)N1CCN(c2ncnc3[nH]c(-c4ccccc4)cc23)CC1 [P-0237, N-(2-chlorophenyl)-4-(6-phenyl-7H-pyrrolo[2,3-d]pyrimidin-4-yl)piperazine-1-carboxamide] | 0.0001 to 1 µM | 1 to 10 µM |
| COc1cc(NC(=O)N2CCN(c3ncnc4[nH]c(-c5ccccc5)cc34)CC2)cc(OC)c1 [P-0239, N-(3,5-dimethoxyphenyl)-4-(6-phenyl-7H-pyrrolo[2,3-d]pyrimidin-4-yl)piperazine-1-carboxamide] | 0.0001 to 1 µM | 1 to 10 µM |
| CCCNS(=O)(=O)N1CCN(c2ncnc3[nH]c(-c4ccccc4)cc23)CC1 [P-0241, 4-(6-phenyl-7H-pyrrolo[2,3-d]pyrimidin-4-yl)-N-propyl-piperazine-1-sulfonamide] | 1 to 10 µM | 0.0001 to 1 µM |
| O=C(NCc1ccc(F)cc1)N1CCN(c2ncnc3[nH]c(-c4ccccc4)cc23)CC1 [P-0242, N-[(4-fluorophenyl)methyl]-4-(6-phenyl-7H-pyrrolo[2,3-d]pyrimidin-4-yl)piperazine-1-carboxamide] | 0.0001 to 1 µM | 1 to 10 µM |
| COc1cc2ncnc(-c3ccc(S(=O)(=O)Nc4ccc(Cl)cc4)cc3F)c2cc1OCCCN1CCOCC1 [P-0247, N-(4-chlorophenyl)-3-fluoro-4-[7-methoxy-6-(3-morpholinopropoxy)quinazolin-4-yl]benzenesulfonamide] | 1 to 10 µM | 0.0001 to 1 µM |
| COc1cc2ncnc(-c3ccc(S(=O)(=O)Nc4ccc(F)cc4)cc3F)c2cc1OCCCN1CCOCC1 [P-0248, 3-fluoro-N-(4-fluorophenyl)-4-[7-methoxy-6-(3-morpholinopropoxy)quinazolin-4-yl]benzenesulfonamide] | 10 to 200 µM | 1 to 10 µM |
| COc1ccc(S(=O)(=O)Nc2ccc(-c3ncnc4cc(OC)c(OCCCN5CCOCC5)cc34)c(F)c2)cc1 [P-0249, N-[3-fluoro-4-[7-methoxy-6-(3-morpholinopropoxy)quinazolin-4-yl]phenyl]-4-methoxy-benzenesulfonamide] | 1 to 10 µM | 0.0001 to 1 µM |
| COc1cc2ncnc(-c3ccc(NS(=O)(=O)c4ccc(Cl)cc4)cc3F)c2cc1OCCCN1CCOCC1 [P-0250, 4-chloro-N-[3-fluoro-4-[7-methoxy-6-(3-morpholinopropoxy)quinazolin-4-yl]phenyl]benzenesulfonamide] | 0.0001 to 1 µM | 0.0001 to 1 µM |
| COc1cc2ncnc(-c3ccc(NS(=O)(=O)C4CC4)cc3F)c2cc1OCCCN1CCOCC1 [P-0251, N-[3-fluoro-4-[7-methoxy-6-(3-morpholinopropoxy)quinazolin-4-yl]phenyl]cyclopropanesulfonamide] | 10 to 200 µM | 0.0001 to 1 µM |
| COc1cc2ncnc(-c3ccc(NS(C)(=O)=O)cc3F)c2cc1OCCCN1CCOCC1 [P-0252, N-[3-fluoro-4-[7-methoxy-6-(3-morpholinopropoxy)quinazolin-4-yl]phenyl]methanesulfonamide] | 10 to 200 µM | 0.0001 to 1 µM |
| COc1cc2c(-c3ccc(NS(=O)(=O)N4CCCC4)cc3F)ncnc2cc1OCCCN1CCCCC1 [P-0253, N-[3-fluoro-4-[6-methoxy-7-[3-(1-piperidyl)propoxy]quinazolin-4-yl]phenyl]pyrrolidine-1-sulfonamide] | 1 to 10 µM | 0.0001 to 1 µM |
| [2H]C([2H])([2H])S(=O)(=O)Nc1ccc(-c2ncnc3cc(OCCCN4CCCCC4)c(OC)cc23)c(F)c1 [P-0254, 1,1,1-trideuterio-N-[3-fluoro-4-[6-methoxy-7-[3-(1-piperidyl)propoxy]quinazolin-4-yl]phenyl]methanesulfonamide] | 1 to 10 µM | 0.0001 to 1 µM |
| COc1ccc(S(=O)(=O)Nc2ccc(-c3ncnc4cc(OCCCN5CCCCC5)c(OC)cc34)c(F)c2)cc1 [P-0255, N-[3-fluoro-4-[6-methoxy-7-[3-(1-piperidyl)propoxy]quinazolin-4-yl]phenyl]-4-methoxy-benzenesulfonamide] | 0.0001 to 1 µM | 0.0001 to 1 µM |
| COc1cc2c(-c3ccc(NS(=O)(=O)c4ccc(Cl)cc4)cc3F)ncnc2cc1OCCCN1CCCCC1 [P-0256, 4-chloro-N-[3-fluoro-4-[6-methoxy-7-[3-(1-piperidyl)propoxy]quinazolin-4-yl]phenyl]benzenesulfonamide] | 0.0001 to 1 µM | 0.0001 to 1 µM |
| COc1cc2c(-c3ccc(NS(=O)(=O)C4CC4)cc3F)ncnc2cc1OCCCN1CCCCC1 [P-0257, N-[3-fluoro-4-[6-methoxy-7-[3-(1-piperidyl)propoxy]quinazolin-4-yl]phenyl]cyclopropanesulfonamide] | 1 to 10 µM | 0.0001 to 1 µM |

| SMILES | IC50 [1] | IC50 [2] |
| --- | --- | --- |
| COc1cc2c(-c3ccc(NS(C)(=O)=O)cc3F)ncnc2cc1OCCCN1CCCCC1 [P-0258, N-[3-fluoro-4-[6-methoxy-7-[3-(1-piperidyl)propoxy]quinazolin-4-yl]phenyl]methanesulfonamide] | 1 to 10 µM | 0.0001 to 1 µM |
| COCCOc1cc2ncnc(-c3ccc(NS(=O)(=O)c4ccc(OC(F)F)cc4)cc3F)c2cc1OCCOC [P-0259, N-[4-[6,7-bis(2-methoxyethoxy)quinazolin-4-yl]-3-fluoro-phenyl]-4-(difluoromethoxy)benzenesulfonamide] | 1 to 10 µM | 0.0001 to 1 µM |
| COCCOc1cc2ncnc(-c3ccc(NS(=O)(=O)c4cccc(F)c4)cc3F)c2cc1OCCOC [P-0260, N-[4-[6,7-bis(2-methoxyethoxy)quinazolin-4-yl]-3-fluoro-phenyl]-3-fluoro-benzenesulfonamide] | 1 to 10 µM | 0.0001 to 1 µM |
| COCCOc1cc2ncnc(-c3ccc(NS(=O)(=O)c4ccc(Cl)cc4)cc3F)c2cc1OCCOC [P-0261, N-[4-[6,7-bis(2-methoxyethoxy)quinazolin-4-yl]-3-fluoro-phenyl]-4-chloro-benzenesulfonamide] | 0.0001 to 1 µM | 0.0001 to 1 µM |
| COCCOc1cc2ncnc(-c3ccc(NS(=O)(=O)c4ccc(OC)cc4)cc3F)c2cc1OCCOC [P-0262, N-[4-[6,7-bis(2-methoxyethoxy)quinazolin-4-yl]-3-fluoro-phenyl]-4-methoxy-benzenesulfonamide] | 0.0001 to 1 µM | 0.0001 to 1 µM |
| COCCOc1cc2ncnc(-c3ccc(NS(=O)(=O)C4CC4)cc3F)c2cc1OCCOC [P-0263, N-[4-[6,7-bis(2-methoxyethoxy)quinazolin-4-yl]-3-fluoro-phenyl]cyclopropanesulfonamide] | 10 to 200 µM | 0.0001 to 1 µM |
| COCCOc1cc2ncnc(-c3ccc(NS(C)(=O)=O)cc3F)c2cc1OCCOC [P-0264, N-[4-[6,7-bis(2-methoxyethoxy)quinazolin-4-yl]-3-fluoro-phenyl]methanesulfonamide] | 10 to 200 µM | 0.0001 to 1 µM |
| O=S(=O)(Nc1ccc(-c2ncnc3cc4c(cc23)OCCO4)c(F)c1)C1CC1 [P-0265, N-[4-(7,8-dihydro-[1,4]dioxino[2,3-g]quinazolin-4-yl)-3-fluoro-phenyl]cyclopropanesulfonamide] | 10 to 200 µM | 10 to 200 µM |
| CS(=O)(=O)Nc1ccc(-c2ncnc3cc4c(cc23)OCCO4)c(F)c1 [P-0266, N-[4-(7,8-dihydro-[1,4]dioxino[2,3-g]quinazolin-4-yl)-3-fluoro-phenyl]methanesulfonamide] | 1 to 10 µM | 1 to 10 µM |
| COc1cc2ncnc(-c3ccc(N)cc3F)c2cc1OC [P-0267, 4-(6,7-dimethoxyquinazolin-4-yl)-3-fluoro-aniline] | 10 to 200 µM | 0.0001 to 1 µM |
| COc1cc2ncnc(-c3ccc(NS(=O)(=O)c4ccc(Cl)cc4)cc3F)c2cc1OC [P-0268, 4-chloro-N-[4-(6,7-dimethoxyquinazolin-4-yl)-3-fluoro-phenyl]benzenesulfonamide] | 1 to 10 µM | 0.0001 to 1 µM |
| CCCS(=O)(=O)Nc1ccc(-c2ncnc3cc(OC)c(OC)cc23)c(F)c1 [P-0269, N-[4-(6,7-dimethoxyquinazolin-4-yl)-3-fluoro-phenyl]propane-1-sulfonamide] | 10 to 200 µM | 0.0001 to 1 µM |
| COc1cc2ncnc(-c3ccc(NS(=O)(=O)C4CC4)cc3F)c2cc1OC [P-0270, N-[4-(6,7-dimethoxyquinazolin-4-yl)-3-fluoro-phenyl]cyclopropanesulfonamide] | 10 to 200 µM | 0.0001 to 1 µM |
| COc1cc2ncnc(-c3ccc(NS(C)(=O)=O)cc3F)c2cc1OC [P-0271, N-[4-(6,7-dimethoxyquinazolin-4-yl)-3-fluoro-phenyl]methanesulfonamide] | 1 to 10 µM | 0.0001 to 1 µM |
| Cc1ccc(-c2cc3c(C4=CCC(NS(=O)(=O)c5ccc(OC(F)(F)F)cc5)CC4)ncnc3[nH]2)cn1 (stereo not shown) [P-0281, N-[4-[6-(6-methyl-3-pyridyl)-7H-pyrrolo[2,3-d]pyrimidin-4-yl]cyclohex-3-en-1-yl]-4-(trifluoromethoxy)benzenesulfonamide] | 10 to 200 µM | 0.0001 to 1 µM |
| CCCc1ccc(S(=O)(=O)Nc2ccc(-c3ncnc4[nH]c(C)cc34)cc2)cc1 [P-0282, N-[4-(6-methyl-7H-pyrrolo[2,3-d]pyrimidin-4-yl)phenyl]-4-propyl-benzenesulfonamide] | 1 to 10 µM | 0.0001 to 1 µM |
